From US20250177421A1, “METHOD FOR PREVENTING OR TREATING HEARING LOSS” (MACKAY MEDICAL COLLEGE, priority 2022, published 2025)

Experiments:
[1] = parameters: species or system mice; conditions: mouse, in vivo
Experimental: (§1) The used procedures followed the protocol reported by Wu et al.^[3]. Inositol hexaphosphate (IP6) obtained from Sigma (USA) was dissolved in ddH2O, and the doses given to the experimental mice intraperitoneally were 40 mg/kg and 80 mg/kg (100 μL of IP6). […] The mice of the control group received only phosphate-buffered saline (PBS, 100 μL).

[2] = tested on: kanamycin/furosemide-injected mice; assay: Loss of OHCs in cochlear tissues (immunohistochemical staining), kanamycin/furosemide-induced SNHL in mice; format: in vivo; conditions: IP6 80 mg/kg IP for 5 days in kanamycin/furosemide-injected mice
Experimental: For the kanamycin-induced SNHL in mice, the schematic protocol for the dosing and timing of kanamycin, furosemide, IP6 and/or fucoxanthin was presented in FIG. 1B. Kanamycin (Sigma Aldrich, USA) was dissolved in PBS, and kanamycin (1 mg/g) and furosemide (0.1 mg/g, Sigma Aldrich, USA) were injected as a single dose on the first day. Specifically, furosemide was intraperitoneally injected within 30 min after kanamycin was injected subcutaneously (SC). One hour later, IP6 and/or fucoxanthin was intraperitoneally injected for 5 consecutive days. Experimental mice were anesthetized, and their cochlear tissues were isolated and dissected. For whole-mount dissection, the protocol detailed by Neal et al. was followed^[5]. In brief, the cochlea was decalcified for 1 hour using a decalcification solution purchased from Apex Engineering (Aurora, IL, USA). […] The images at three randomly-selected regions (300 μm length) in the apical, middle, and basal cochlear turns were acquired by using the same apparatus, and the loss of OHCs was manually counted. Average loss of OHCs was then calculated in apex, middle and base regions, respectively^[6]. Fluorescent images were taken with a Leica SP8 confocal fluorescence microscope. […] One week later, the hearing threshold of all groups of mice was measured using ABR instrument. […]

[3] = tested on: 12-month-old C57BL/6J mice; assay: Loss of OHCs and IHCs in cochlear tissues (immunohistochemical staining), ARHL mouse model; format: in vivo; conditions: 12-month-old mice
cisplatin-injected mice [4] = assay: Auditory brainstem response (ABR) hearing threshold, cisplatin-induced SNHL in mice; format: in vivo; conditions: cisplatin-injected mice (3 mg/kg IP, 5 days) with IP6 40 or 80 mg/kg IP; measured one week later
mouse cochlear tissues = assay: NanoString neuropathology gene expression analysis of cochlear tissues; format: in vivo, mice
Experimental: Total mRNA was extracted from mouse cochlear tissues as per the protocol described in previous studies^[10, 11]. The expression profile of neuropathological genes was analyzed using a NanoString mouse neuropathology panel (NanoString Technologies, Seattle, WA, USA), which includes genes involved in neural cell types and neuropathological processes^[12, 13]. All analyses of genes or pathways scores were performed in accordance with the user manual of the nCounter Advanced Analysis Software and were described in detail in previous studies^[10, 11]. Cold Spring Biotech in Taiwan was responsible for performing the NanoString gene expression analysis and bioinformatics analyses.

[5] = tested on: kanamycin/furosemide-injected mice; assay: ABR hearing threshold, kanamycin/furosemide-induced SNHL in mice; format: in vivo; conditions: IP6 80 mg/kg or fucoxanthin 60 mg/kg IP for 5 consecutive days
Experimental: For the kanamycin-induced SNHL in mice, the schematic protocol for the dosing and timing of kanamycin, furosemide, IP6 and/or fucoxanthin was presented in FIG. 1B. Kanamycin (Sigma Aldrich, USA) was dissolved in PBS, and kanamycin (1 mg/g) and furosemide (0.1 mg/g, Sigma Aldrich, USA) were injected as a single dose on the first day. Specifically, furosemide was intraperitoneally injected within 30 min after kanamycin was injected subcutaneously (SC). One hour later, IP6 and/or fucoxanthin was intraperitoneally injected for 5 consecutive days. The ABR of mice was measured to evaluate their hearing threshold. In brief, measurements were performed on the scalps of mice under anesthesia by using subdermal needle electrodes placed at the vertex, below the pinna of the left ear (as a reference measurement), and below the contralateral ear (ground). The sound stimuli included clicks ([…]; 4, 8, and 12 kHz). The devices used for ABR measurement were specifically designed for animal experiments (BIOPAC System, USA). […] The ABR threshold was measured through detection of the presence of V waves. […] One week later, the hearing threshold of all groups of mice was measured using ABR instrument. […]

cisplatin-injected mice [6] = assay: Loss of outer hair cells (OHCs) count in cochlear tissues, cisplatin-induced SNHL in mice; format: in vivo
Experimental: as §1
Experimental mice were anesthetized, and their cochlear tissues were isolated and dissected. For whole-mount dissection, the protocol detailed by Neal et al. was followed^[5]. In brief, the cochlea was decalcified for 1 hour using a decalcification solution purchased from Apex Engineering (Aurora, IL, USA). The excess temporal bone around the cochlea was trimmed, and the cochlea was bisected along the midmodiolar plane and then submerged in phosphate buffered saline (PBS). A series of cuts through the modiolus separated the half-turns from one another. […]
For the loss of OHCs counts, hair cells (HCs) were counterstained with phalloidin, Myo7A and DAPI stainings. […] The images at three randomly-selected regions (300 μm length) in the apical, middle, and basal cochlear turns were acquired by using the same apparatus, and the loss of OHCs was manually counted. Average loss of OHCs was then calculated in apex, middle and base regions, respectively^[6]. Fluorescent images were taken with a Leica SP8 confocal fluorescence microscope. […]

aging mice = assay: ABR hearing threshold, age-related hearing loss (ARHL) mouse model; format: in vivo; conditions: IP6 drink group (2% IP6 in drinking water for 10 months), 12-month-old mice
[7] = 2% IP6 through drinking water for 10 months
[8] = IP6 80 mg/kg IP three days per week for 10 months

O=P(O)(O)O[C@H]1[C@H](OP(=O)(O)O)[C@@H](OP(=O)(O)O)[C@H](OP(=O)(O)O)[C@@H](OP(=O)(O)O)[C@H]1OP(=O)(O)O [IP6, inositol hexaphosphate]
serum alanine aminotransferase (ALT) [1]: no difference | serum aspartate aminotransferase (AST) [1]: no difference | serum total bilirubin [1]: no difference | loss of OHCs (Myo7A+) in the apex, middle and base regions of the cochlear tissues [2]: significantly reduced | loss of IHCs (Myo7A+) in the base regions [3, 7]: moderately mitigated | loss of OHCs (Myo7A+) in the apex, middle, and base regions [3, 7]: moderately mitigated | loss of IHCs (Myo7A+) in the base regions [3, 8]: moderately mitigated | loss of OHCs (Myo7A+) in the apex, middle, and base regions [3, 8]: moderately mitigated | hearing threshold (ABR) after IP6 treatment (cisplatin-injected mice [4]): 20 to 30 db | carbohydrate metabolism: mRNA levels of Akt3, Slc1a1, and Slc1a2 (mouse cochlear tissues; IP6 treatment): upregulated | lipid metabolism: mRNA levels of Cers6, Dgkb, Dgke, B4galt6, and Pla2g4c (mouse cochlear tissues; IP6 treatment, P<0.05): upregulated | microglia gene score: mRNA levels of Amigo1, Atp6v1a, and Ap3m2 (mouse cochlear tissues; after IP6 treatment (80 mg/kg), kanamycin/furosemide-injected mice, P<0.05): significantly upregulated | endothelial cell gene score: mRNA levels of Nrxn1 and Prkcb (mouse cochlear tissues; after IP6 treatment (80 mg/kg), Nrxn1 P<0.01, Prkcb P<0.05): significantly upregulated | neuron score genes (Plcb4, Cacna1a, Calb1, Hen1, Cur1, Arhgap44, Gria4, Scn1a, Grik2, Cntnap1, Shank2, Lrrc4, Rab3a, Nrxn1, Adora1, Pak1, Frmpd4, Scn2a1, Dagla, Atcay) (mouse cochlear tissues; after IP6 treatment (80 mg/kg), P<0.01): significantly upregulated | myelination gene score: mRNA levels of Cntnap1, Scn2a1, and Amigo1 (mouse cochlear tissues; after IP6 treatment, Cntnap1 P<0.01, Scn2a1 and Amigo1 P<0.05): significantly upregulated | vesicle trafficking gene scores: mRNA levels of Cacna1a, Calb1, Gabrb2, Syt4, Cnr1, Gria4, Grik2, Rims1, Cacnb4, Stx1b, Shank2, Fgf14, Syt13, Rab3a, Ncam1, Nrxn1, Adora1, Nova1, Gabra1, Rit2 (mouse cochlear tissues; after IP6 treatment, P<0.01): significantly upregulated | transcriptional patterns of astrocytes, endothelial cells, microglia, and neurons (mouse cochlear tissues; kanamycin/furosemide-injected mice, 80 mg/kg IP6): reversed | hearing threshold (ABR) of kanamycin/furosemide-injected mice [5]: significant reduction | loss of OHCs (Myo7A+) in the apex, middle, and base regions (cisplatin-injected mice [6]; IP6 80 mg/kg IP 2 h before cisplatin 3 mg/kg IP, once per day for 5 days, compared with cisplatin-injected mice without IP6): significantly reduced | hearing function at the frequency of 12 kHz compared with the control group (aging mice): significantly improved

fucoxanthin
hearing threshold (ABR) of kanamycin/furosemide-injected mice [5]: significant reduction

N.N.[Cl][Pt][Cl] [cisplatin, reference compound]
serum alanine aminotransferase (ALT) [1]: no difference | serum aspartate aminotransferase (AST) [1]: no difference | serum total bilirubin [1]: no difference | loss of OHCs (Myo7A+) in the apex, middle, and base regions (cisplatin-injected mice [6]; cisplatin 3 mg/kg IP once per day for 5 days, compared with the control group): significant loss
